One may read the IC50 as the concentration at which inhibition is half-maximal. What is called Papp A→B is the apparent permeability from the apical to the basolateral side of a cell layer.

Where only a bound is given, the exact number is not on record here.

Data set [1] has as its target T1, human Oxytocin Receptor (hOTR) (Homo sapiens, UniProt P30559).
T1 construct: host or cells: CHEM-1 (ready-to-assay frozen cells)
T1 sequence (P30559 1-389): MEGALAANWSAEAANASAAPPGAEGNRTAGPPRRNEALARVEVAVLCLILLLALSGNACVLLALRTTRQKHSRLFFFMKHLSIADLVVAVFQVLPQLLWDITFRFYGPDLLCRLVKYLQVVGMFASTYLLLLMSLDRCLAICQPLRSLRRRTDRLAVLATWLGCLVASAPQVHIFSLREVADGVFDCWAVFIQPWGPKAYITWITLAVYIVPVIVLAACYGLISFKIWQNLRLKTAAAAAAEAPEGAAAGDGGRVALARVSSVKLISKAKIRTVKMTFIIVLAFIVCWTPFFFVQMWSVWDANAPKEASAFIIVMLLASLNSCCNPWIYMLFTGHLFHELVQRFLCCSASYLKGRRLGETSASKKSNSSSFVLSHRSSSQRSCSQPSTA
Kind of data set: Oxytocin receptor (OTR) antagonist assay (FLIPR calcium, CHEM-1-hOTR cells). In kind it is cell-based. The method in brief:
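CHEM-1 cells expressing human OTR were loaded with Calcium-6 dye in HBSS/20 mM HEPES and preincubated with compound (10-point, 1:3 series) for 15 min at 37° C. Cells were then challenged with oxytocin at its daily-determined EC80. Calcium fluorescence was read on FLIPR for 3 min after each addition.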

Data set [2] is described as follows: Wild-type MDCK permeability and efflux assay (Papp, efflux ratio). In kind it is in vitro ADME. As to conditions: dog, pH 7.4, wild-type MDCK cells; for efflux ratio at 1 h, 10 μM: Papp B>A/Papp A>B, read-out: ER WT (Efflux Ratio). The method in brief:
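Bidirectional transport measured over 1 h at 37 °C with 10 μM test compound (0.1% DMSO) in pH 7.4 HEPES-buffered HBSS across MDR1-transfected and wild-type MDCK monolayers, analysed by LC-MS/MS. Efflux ratio is B>A over A>B Papp; effective efflux ratio divides MDR1-MDCK ER by wild-type ER.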

In the case of `Cc1nccc(N2CC3(CN(C(=O)N4c5ccc(Cl)cc5OCC4C)C3)C2)n1` (stereo not shown) [21-8], the IC50 in data set [1] lay in the range of 100 to 500 nM. Further, in data set [2], the Papp A→B at 1 h, 10 μM was greater than 20 ×10⁻⁶ cm/s and the efflux ratio at 1 h, 10 μM is less than 1.

In the case of `CC1COc2cc(Cl)ccc2N1C(=O)N1CC2(C1)CN(c1ccc(F)cn1)C2` (single isomer, unassigned) [1-73-B], the IC50 in data set [1] was less than 100 nM.

For the compound `Cc1cnnc(N2CC3(CN(C(=O)N4c5ccc(Cl)cc5OCC4C)C3)C2)c1` (stereo not shown) [21-4], the IC50 in data set [1] is 500 to 1000 nM. In data set [2], the Papp A→B at 1 h, 10 μM is greater than 20 ×10⁻⁶ cm/s and the efflux ratio at 1 h, 10 μM lay within 1 to 2.

`Cc1cncc(N2CC3(CN(C(=O)N4CCOc5cc(Cl)ccc54)C3)C2)n1` [1-22]: in data set [1], the IC50 was no less than 1000 nM. Further, in data set [2], the Papp A→B at 1 h, 10 μM was greater than 20 ×10⁻⁶ cm/s and the efflux ratio at 1 h, 10 μM was less than 1.

Turning to `CC1COc2cc(Cl)ccc2N1C(=O)N1CC2(C1)CN(c1nn(C)c3ncccc13)C2` (single isomer, unassigned) [20-15-B], the IC50 in data set [1] is 500 to 1000 nM. In addition, in data set [2], the Papp A→B at 1 h, 10 μM was greater than 20 ×10⁻⁶ cm/s and the efflux ratio at 1 h, 10 μM is less than 1.

For `CC1COc2cc(Cl)ccc2N1C(=O)N1CC2(C1)CN(c1ncncc1F)C2` (stereo not shown) [21-5], the IC50 in data set [1] lay in the range of 100 to 500 nM. Also, in data set [2], the Papp A→B at 1 h, 10 μM is greater than 20 ×10⁻⁶ cm/s and the efflux ratio at 1 h, 10 μM fell in the range of 1 to 2.

`O=C(N1CC2(C1)CN(c1ccc(F)cn1)C2)N1CCOc2cc(F)ccc21` [1-64]: in data set [2], the Papp A→B at 1 h, 10 μM was greater than 20 ×10⁻⁶ cm/s and the efflux ratio at 1 h, 10 μM was less than 1.

As for `O=C(N1CC2(C1)CN(c1cc(F)ccn1)C2)N1CCOc2cc(Cl)ccc21` [1-70], in data set [1], the IC50 was no less than 1000 nM. In addition, in data set [2], the Papp A→B at 1 h, 10 μM was greater than 20 ×10⁻⁶ cm/s and the efflux ratio at 1 h, 10 μM lay within 1 to 2.

As for `CC1COc2cc(Cl)ccc2N1C(=O)N1CC2(C1)CN(c1ccccn1)C2` (stereo not shown) [1-60], the 50% inhibitory concentration (IC50) in data set [1] is less than 100 nM. Moreover, in data set [2], the Papp A→B at 1 h, 10 μM was greater than 20 ×10⁻⁶ cm/s and the efflux ratio at 1 h, 10 μM is less than 1.

Regarding `CC1COc2cc(Cl)ccc2N1C(=O)N1CC2(C1)CN(c1noc3ccccc13)C2` (stereo not shown) [21-1, (6-(benzo[d]isoxazol-3-yl)-2,6-diazaspiro[3.3]heptan-2-yl)(7-chloro-3-methyl-2,3-dihydro-4H-benzo[b][1,4]oxazin-4-yl)methanone], the IC50 in data set [1] was 500 to 1000 nM. In data set [2], the Papp A→B at 1 h, 10 μM was in the range of 10 to 20 ×10⁻⁶ cm/s and the efflux ratio at 1 h, 10 μM is less than 1.

On to `CC1COc2cc(F)ccc2N1C(=O)N1CC2(C1)CN(c1ncccc1F)C2` (stereo not shown) [1-67], for which, in data set [1], the IC50 lay in the range of 100 to 500 nM.

In the case of `CC1COc2cc(Cl)ccc2N1C(=O)N1CC2(C1)CN(c1ncc(F)cn1)C2` (single isomer, unassigned) [18-2-B], in data set [1], the IC50 fell in the range of 100 to 500 nM. For the same compound, in data set [2], the Papp A→B at 1 h, 10 μM is greater than 20 ×10⁻⁶ cm/s and the efflux ratio at 1 h, 10 μM was less than 1.

As to `CC1COc2cc(F)ccc2N1C(=O)N1CC2(C1)CN(c1cnccn1)C2` (single isomer, unassigned) [1-65-B], the IC50 in data set [1] was in the range of 100 to 500 nM. Moreover, in data set [2], the Papp A→B at 1 h, 10 μM was greater than 20 ×10⁻⁶ cm/s and the efflux ratio at 1 h, 10 μM is 1 to 2.

`CCC1COc2cc(Cl)ccc2N1C(=O)N1CC2(C1)CN(c1ccc(F)cn1)C2` (single isomer, unassigned) [1-55-B]: the IC50 in data set [1] is less than 100 nM.

For the compound `Cc1cccc(N2CC3(CN(C(=O)N4CCOc5cc(Cl)ccc54)C3)C2)n1` [1-3], the IC50 in data set [1] was 500 to 1000 nM.

Consider `COc1ccc2c(c1)OCC(C)N2C(=O)N1CC2(C1)CN(c1ccc(F)cn1)C2` (single isomer, unassigned) [1-59-B], for which the IC50 in data set [1] was in the range of 100 to 500 nM. In addition, in data set [2], the apparent permeability from apical to basolateral (Papp A→B) at 1 h, 10 μM was greater than 20 ×10⁻⁶ cm/s and the efflux ratio at 1 h, 10 μM was less than 1.

Turning to `CC1COc2cc(Cl)ccc2N1C(=O)N1CC2(C1)CN(c1nccc(C(F)(F)F)n1)C2` (stereo not shown) [21-10], the IC50 in data set [1] fell in the range of 500 to 1000 nM. Further, in data set [2], the Papp A→B at 1 h, 10 μM fell in the range of 10 to 20 ×10⁻⁶ cm/s and the efflux ratio at 1 h, 10 μM lay within 1 to 2.

Consider `Cc1cncc(N2CC3(CN(C(=O)N4c5ccc(Cl)cc5OCC4C)C3)C2)n1` (stereo not shown) [21-3], for which the IC50 in data set [1] is less than 100 nM. Moreover, in data set [2], the Papp A→B at 1 h, 10 μM was greater than 20 ×10⁻⁶ cm/s and the efflux ratio at 1 h, 10 μM is less than 1.

As for `CC1COc2cc(Cl)ccc2N1C(=O)N1CC2(C1)CN(c1ccncn1)C2` (stereo not shown) [21-6], in data set [1], the concentration for half-maximal inhibition (IC50) lay within 100 to 500 nM. In addition, in data set [2], the Papp A→B at 1 h, 10 μM is greater than 20 ×10⁻⁶ cm/s and the efflux ratio at 1 h, 10 μM is less than 1.

On to `CCc1cnc(N2CC3(CN(C(=O)N4c5ccc(Cl)cc5OCC4C)C3)C2)nc1` (stereo not shown) [21-9], for which the half-maximal inhibitory concentration (IC50) in data set [1] was no less than 1000 nM.

Turning to `O=C(N1CC2(C1)CN(c1cccnc1)C2)N1CCOc2cc(Cl)ccc21` [1-72], in data set [2], the Papp A→B at 1 h, 10 μM was greater than 20 ×10⁻⁶ cm/s and the efflux ratio at 1 h, 10 μM is less than 1.

On to `CC1COc2cc(Cl)ccc2N1C(=O)N1CC2(C1)CN(c1cnccn1)C2` (single isomer, unassigned) [1-58-B], for which, in data set [1], the IC50 is less than 100 nM. Moreover, in data set [2], the Papp A→B at 1 h, 10 μM is greater than 20 ×10⁻⁶ cm/s and the efflux ratio at 1 h, 10 μM lay within 1 to 2.

Regarding `Cc1cnc(N2CC3(CN(C(=O)N4c5ccc(Cl)cc5OCC4C)C3)C2)nc1` (single isomer, unassigned) [20-13-B], in data set [2], the Papp A→B at 1 h, 10 μM is greater than 20 ×10⁻⁶ cm/s and the efflux ratio at 1 h, 10 μM is less than 1.

Turning to `CC1COc2cc(Cl)ccc2N1C(=O)N1CC2(C1)CN(c1ccccn1)C2` (single isomer, unassigned) [1-60-B], the IC50 in data set [1] was less than 100 nM. In addition, in data set [2], the Papp A→B at 1 h, 10 μM was greater than 20 ×10⁻⁶ cm/s and the efflux ratio at 1 h, 10 μM was less than 1.

Turning to `O=C(N1CC2(C1)CN(c1cccnn1)C2)N1CCOc2cc(Cl)ccc21` [1-71], in data set [2], the Papp A→B at 1 h, 10 μM is greater than 20 ×10⁻⁶ cm/s and the efflux ratio at 1 h, 10 μM was less than 1.

On to `O=C(N1CC2(C1)CN(c1cnc(F)cn1)C2)N1CCOc2cc(Cl)ccc21` [1-18], for which, in data set [2], the Papp A→B at 1 h, 10 μM is greater than 20 ×10⁻⁶ cm/s and the efflux ratio at 1 h, 10 μM was less than 1.

On to `CC1COc2cc(Cl)ccc2N1C(=O)N1CC2(C1)CN(c1ncccc1C#N)C2` (stereo not shown) [21-2], for which, in data set [1], the IC50 is 100 to 500 nM. Moreover, in data set [2], the Papp A→B at 1 h, 10 μM was greater than 20 ×10⁻⁶ cm/s and the efflux ratio at 1 h, 10 μM was less than 1.

For the compound `Cc1nc(N2CC3(CN(C(=O)N4CCOc5cc(Cl)ccc54)C3)C2)ccc1F` [1-30], the IC50 in data set [1] fell in the range of 500 to 1000 nM.

On to `O=C(N1CC2(C1)CN(c1ccc(F)cn1)C2)N1CCC(O)c2cc(Cl)ccc21` (single isomer, unassigned) [13-1-B], for which the IC50 in data set [1] was no less than 1000 nM.

Consider `O=C(N1CC2(C1)CN(c1cc(F)cc(F)n1)C2)N1CCOc2cc(Cl)ccc21` [1-51], for which the IC50 in data set [1] is no less than 1000 nM.

As to `N#Cc1cccc(N2CC3(CN(C(=O)N4CCOc5cc(Cl)ccc54)C3)C2)n1` [1-39], in data set [1], the IC50 lay in the range of 100 to 500 nM.

Regarding `CC1COc2cc(F)ccc2N1C(=O)N1CC2(C1)CN(c1ncccc1F)C2` (single isomer, unassigned) [1-67-A], the IC50 in data set [1] is 100 to 500 nM.

On to `O=C(N1CC2(C1)CN(c1cccc(F)n1)C2)N1CCOc2cc(Cl)ccc21` [1-69], for which, in data set [1], the IC50 was no less than 1000 nM.

As for `CC1COc2cc(F)ccc2N1C(=O)N1CC2(C1)CN(c1ccccn1)C2` (single isomer, unassigned) [1-66-B], the IC50 in data set [1] lay within 100 to 500 nM.
